Data as given in ChEMBL document CHEMBL3085750, “Discovery of 2-methylpyridine-based biaryl amides as γ-secretase modulators for the treatment of Alzheimer's disease” (Bioorg Med Chem Lett, 2013).

What was measured:
Gamma-secretase = assay: Modulation of gamma-secretase in HEK293 cells expressing guinea pig Swedish mutant SFV-APP695sw assessed as inhibition of amyloid beta-42 production after 16 to 18 hrs by HTRF assay; assay type: cell-based, Homo sapiens
Cytochrome P450 3A4 = Cytochrome P450 3A4 (Homo sapiens, UniProt P08684); assay: Inhibition of CYP3A4 (unknown origin) after 5 mins; assay type: ADME
[1] = Metabolic stability in rat liver microsomes at 1 uM after 30 mins; assay type: ADME; conditions: read-out: Stability
[2] = Ratio of drug level in brain to plasma in mouse at 10 mg/kg, po after 2 hrs; assay type: ADME, organism-based; set-up: dose 10 mg/kg, route oral; conditions: read-out: BPR
Cytochrome P450 2D6 = Cytochrome P450 2D6 (Homo sapiens, UniProt P10635); assay: Inhibition of CYP2D6 (unknown origin) after 10 mins; assay type: ADME
[3] = Metabolic stability in human liver microsomes at 1 uM after 30 mins; assay type: ADME; conditions: read-out: Stability

Sequence of Cytochrome P450 3A4 (P08684 whole entry): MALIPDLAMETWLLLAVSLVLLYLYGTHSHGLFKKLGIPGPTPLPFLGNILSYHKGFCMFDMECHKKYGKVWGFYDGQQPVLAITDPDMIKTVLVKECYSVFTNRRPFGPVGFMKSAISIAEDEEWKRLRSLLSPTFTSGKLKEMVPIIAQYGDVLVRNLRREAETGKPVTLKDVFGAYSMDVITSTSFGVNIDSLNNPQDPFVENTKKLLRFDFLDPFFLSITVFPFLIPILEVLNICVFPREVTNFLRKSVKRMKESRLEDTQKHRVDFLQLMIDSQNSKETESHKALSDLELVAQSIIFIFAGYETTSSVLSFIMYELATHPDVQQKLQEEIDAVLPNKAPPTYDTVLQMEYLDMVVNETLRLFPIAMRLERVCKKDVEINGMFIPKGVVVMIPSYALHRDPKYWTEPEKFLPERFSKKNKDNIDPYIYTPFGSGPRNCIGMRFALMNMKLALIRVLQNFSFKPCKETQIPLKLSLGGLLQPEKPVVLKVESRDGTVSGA
Sequence of Cytochrome P450 2D6 (P10635 whole entry): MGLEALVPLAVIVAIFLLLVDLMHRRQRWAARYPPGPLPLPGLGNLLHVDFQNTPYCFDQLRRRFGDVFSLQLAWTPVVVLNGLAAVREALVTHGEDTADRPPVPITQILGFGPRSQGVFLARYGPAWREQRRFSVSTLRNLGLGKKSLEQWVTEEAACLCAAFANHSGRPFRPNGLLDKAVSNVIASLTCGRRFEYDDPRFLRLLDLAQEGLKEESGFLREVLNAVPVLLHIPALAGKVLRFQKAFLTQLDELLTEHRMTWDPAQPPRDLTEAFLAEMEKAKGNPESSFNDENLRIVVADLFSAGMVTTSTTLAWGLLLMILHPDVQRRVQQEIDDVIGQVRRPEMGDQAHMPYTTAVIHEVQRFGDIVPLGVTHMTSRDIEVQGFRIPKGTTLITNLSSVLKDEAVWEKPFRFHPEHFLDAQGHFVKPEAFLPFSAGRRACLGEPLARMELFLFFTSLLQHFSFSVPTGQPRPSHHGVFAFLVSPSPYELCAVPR

IC50 (Gamma-secretase) | IC50 (Cytochrome P450 3A4) | microsomal CLint at 1 µM [1] | Kp at 2 h [2] | IC50 (Cytochrome P450 2D6) | microsomal CLint at 1 µM [3] | Compound
500 nM |  |  |  |  |  | COc1cc(NC(=O)[C@H](C)c2cc(C(F)(F)F)cc(C(F)(F)F)c2)ccc1-c1ccnc(C)c1
1450 nM |  |  |  |  |  | COc1cc(NC(=O)Cc2cc(C(F)(F)F)cc(C(F)(F)F)c2)ccc1-n1cnc(C)c1
720 nM | 4700 nM | > 399 µL/min/mg | 0.1 | 9800 nM | 497 µL/min/mg | Cc1cc(-c2ccc(NS(=O)(=O)c3cc(Cl)cc(Cl)c3)cc2)ccn1
2120 nM |  |  |  |  |  | Cc1cc(-c2ccc(C(=O)NCCc3ccc(Cl)cc3)cc2)ccn1
> 10000 nM |  |  |  |  |  | Cc1cc(-c2ccc(NC(=O)C(C)c3cccc(-c4ccccn4)c3)cc2)ccn1 (centres undefined)
> 10000 nM | 3500 nM | > 399 µL/min/mg |  | 7200 nM | 45 µL/min/mg | O=S(=O)(Nc1ccc(-c2cncnc2)cc1)c1cc(Cl)cc(Cl)c1
> 10000 nM | > 27000 nM | > 399 µL/min/mg |  | > 27000 nM | > 399 µL/min/mg | Cc1noc(-c2ccc(NS(=O)(=O)c3cc(Cl)cc(Cl)c3)cc2)n1
1540 nM | 1600 nM | 166 µL/min/mg | 0.03 | 2900 nM | 32 µL/min/mg | O=S(=O)(Nc1ccc(-c2cnco2)cc1)c1cc(Cl)cc(Cl)c1
460 nM | > 27000 nM | 22 µL/min/mg |  | 13000 nM | 18 µL/min/mg | Cc1cc(-c2ccc(NC(=O)Cc3cc(C(F)(F)F)cc(C(F)(F)F)c3)cc2)ccn1
490 nM |  |  |  |  |  | CCCCC(C(=O)Nc1ccc(-c2ccnc(C)c2)cc1)c1cccc(C)c1 (centres undefined)
70 nM |  |  |  |  |  | Cc1cc(-c2ccc(NC(=O)[C@@H](C)c3cccc(-c4ccc(N5CCOCC5)cc4)c3)cc2)ccn1
2440 nM | 27000 nM | 287 µL/min/mg | 0.16 | 15100 nM | 94 µL/min/mg | O=S(=O)(Nc1ccc(-c2nnco2)cc1)c1cc(Cl)cc(Cl)c1
650 nM |  |  |  |  |  | Cc1cc(-c2ccc(NC(=O)C(C)c3cccc(-c4cnc(N5CCOCC5)nc4)c3)cc2)ccn1 (centres undefined)
170 nM |  |  |  |  |  | Cc1cc(-c2ccc(NC(=O)C(C)c3cccc(-c4ccc(N(C)C)nc4)c3)cc2)ccn1 (centres undefined)
150 nM |  |  |  |  |  | Cc1cc(-c2ccc(NC(=O)C(C)c3cccc(-c4ccc(N5CCOCC5)nc4)c3)cc2)ccn1 (centres undefined)
1110 nM |  |  |  |  |  | Cc1cc(-c2ccc(NC(=O)Nc3cc(C(F)(F)F)cc(C(F)(F)F)c3)cc2)ccn1
820 nM |  |  |  |  |  | Cc1cc(-c2ccc(NC(=O)C(CC(C)C)c3cc(C(F)(F)F)cc(C(F)(F)F)c3)cc2)ccn1 (centres undefined)
320 nM |  | > 399 µL/min/mg |  |  |  | COc1cc(C(=O)NCCC(c2ccccc2)c2ccccc2)ccc1-n1cnc(C)c1

IC50 (Gamma-secretase) | IC50 (Cytochrome P450 3A4) | microsomal CLint at 1 µM [1] | Kp at 2 h [2] | IC50 (Cytochrome P450 2D6) | microsomal CLint at 1 µM [3] | Compound
> 10000 nM |  |  |  |  |  | Cc1cc(-c2ccc(NC(=O)C(C)c3cc(C(F)(F)F)cc(C(F)(F)F)n3)cc2)ccn1 (centres undefined)
9400 nM | > 27000 nM | 113 µL/min/mg |  | > 27000 nM | 22 µL/min/mg | Cc1nccn1-c1ccc(NS(=O)(=O)c2cc(Cl)cc(Cl)c2)cc1
1060 nM |  |  |  |  |  | COc1cc(NS(=O)(=O)c2cc(Cl)cc(Cl)c2)ccc1-n1cnc(C)c1
> 10000 nM |  | > 399 µL/min/mg |  | > 27000 nM | > 399 µL/min/mg | O=S(=O)(Nc1ccc(-c2ccco2)cc1)c1cc(Cl)cc(Cl)c1
570 nM |  |  |  |  |  | Cc1cc(-c2ccc(NC(=O)C(C)c3cccc(-c4ccccc4C#N)c3)cc2)ccn1 (centres undefined)
1050 nM |  |  |  |  |  | CCC(C(=O)Nc1ccc(-c2ccnc(C)c2)cc1)c1cccc(C)c1 (centres undefined)
150 nM |  |  |  |  |  | COc1ccc(-c2cccc(C(C)C(=O)Nc3ccc(-c4ccnc(C)c4)cc3)c2)cc1 (centres undefined)
930 nM |  |  |  |  |  | CNc1ccc(-c2cccc(C(C)C(=O)Nc3ccc(-c4ccnc(C)c4)cc3)c2)cn1 (centres undefined)
31 nM |  |  |  |  |  | Cc1cc(-c2ccc(NC(=O)[C@H](C)c3cccc(-c4ccc(N5CCOCC5)cc4)c3)cc2)ccn1
4800 nM |  |  |  |  |  | Cc1cc(-c2ccc(NC(=O)C(C)c3cccc(N4CCOCC4)c3)cc2)ccn1 (centres undefined)
7000 nM |  |  |  |  |  | Cc1cc(-c2ccc(NC(=O)C(C)c3cc(C#N)cc(C(F)(F)F)c3)cc2)ccn1 (centres undefined)
2780 nM |  |  |  |  |  | Cc1cccc(CC(=O)Nc2ccc(-c3ccnc(C)c3)cc2)c1
120 nM |  |  |  |  |  | Cc1cc(-c2ccc(NC(=O)C(C)c3cccc(-c4ccc(N(C)C)cc4)c3)cc2)ccn1 (centres undefined)
540 nM |  |  |  |  |  | CCCC(C(=O)Nc1ccc(-c2ccnc(C)c2)cc1)c1cccc(C)c1 (centres undefined)
1200 nM |  |  |  |  |  | Cc1cc(-c2ccc(NC(=O)C(C)c3cccc(-c4ccncc4)c3)cc2)ccn1 (centres undefined)
1530 nM |  |  |  |  |  | Cc1cc(-c2ccc(/C=C3\CCCN([C@@H](C)c4ccc(F)cc4)C3=O)cc2)ccn1
> 10000 nM | 15300 nM | > 399 µL/min/mg |  | 11800 nM | 384 µL/min/mg | O=S(=O)(Nc1ccc(-c2cc[nH]n2)cc1)c1cc(Cl)cc(Cl)c1
